System: SH-SY5Y
Experiment: Neuroprotection against rotenone/oligomycin A-induced cell death in human SH-SY5Y cells at 1 uM preincubated for 24 hrs followed by rotenone/oligomycin A addition measured after 24 hrs by MTT assay relative to control
Format: functional

Cc1[nH]nc2c1C(c1cccnc1)C(C#N)=C(N)O2 (stereo unspecified)
Activity: 57.9%

Reference: ChEMBL document CHEMBL4270556, “Current progress on antioxidants incorporating the pyrazole core” (Eur J Med Chem, 2018)
